Results reported in US4336250A, “Lactation improvement method” (Eli Lilly and Company, priority 1981, dated 1982).

What was measured:
[1] = tested on: Ruminal VFA (rumen fluid); experiment: In vitro rumen fluid fermentation test, ratio of VFA in treated to control flasks; set-up: species or system steer; details: 16 hours at 38° C
Description: As previously noted, a preferred method for improving milk production in lactating ruminants comprises the oral administration of the virginiamycin type antibiotic A-2315. […] Rumen fluid is obtained from a steer with a surgically-installed fistula opening into the rumen. The steer is maintained on a high-grain ration, the composition of which follows: A sample of rumen fluid is strained through four layers of cheesecloth, and the filtrate is collected. The particulate matter retained by the cheesecloth is resuspended in enough physiological buffer to return it to the original volume of the rumen fluid, and this suspension is strained again. The buffer used has the following composition: The two filtrates are combined and allowed to stand until particulate matter separates to the top. The clear layer is separated, diluted with the same buffer (1:1) and then adjusted to pH 7.0. The diluted rumen fluid (10 ml.) is placed in a 25-ml flask with 40 mg. of the above-described feed, an additional 5 mg. of soybean protein, and the test compound. Four replicate flasks are used per treatment. Two sets of four control flasks each are also employed. A zero-time control and an incubated 16-hour control are used. All test flasks are incubated for 16 hours at 38° C. After incubation, 25 percent metaphosphoric acid (2 ml.) is added to each flask. The samples are allowed to settle, and the supernatant is analyzed by gas chromatography for propionate, acetate, and butyrate compounds. Test compound results are statistically compared with control results.

[2] = tested on: Ruminal VFA; experiment: In vivo ruminal VFA test in fistulated non-lactating lambs; set-up: species or system sheep; details: 15 g/ton in feed
Procedure: Two groups of fistulated lambs are allowed slightly more than their normal feed ration for 17 days. Test compound is administered to one group in the feed on a g/ton basis.
The rumen fluids of both groups of animals are sampled on days 3, 7, 10, 14 and 17 of the treatment period.
The fermentation of the ruminal samples is halted by addition of meta-phosphoric acid. Each sample is diluted, centrifuged at 2000×gravity for 10 minutes; the supernatants are analyzed for volatile fatty acids via the gas chromatographic method of E. S. Erwin, G. J. Marco and E. M. Emery in J. Dairy Sci., 44, 1768 […]. Molar percentages of ruminal volatile fatty acids are calculated, and the effect is measured as a comparison of the molar percentages of propionic acid and butyric acid in treated animals to those in contemporary controls. The results of the test are presented below in Tables II and III.

[3] = tested on: dairy cows; details: all administration rates evaluated; cited from earlier work
[4] = 0.1 mcg per ml diluted rumen fluid
[5] = 0.3 mcg per ml diluted rumen fluid
[6] = 1.0 mcg per ml diluted rumen fluid
[7] = molar percentage of ruminal VFA, 17 days

SMILES | Acetate, ratio of VFA concentration in treated flasks to control flasks [1, 4] | Butyrate, ratio of VFA concentration in treated flasks to control flasks [1, 4] | Propionate, ratio of VFA concentration in treated flasks to control flasks [1, 4] | Total VFA, ratio of concentration in treated flasks to control flasks [1, 4] | Acetate, ratio of VFA concentration in treated flasks to control flasks [1, 5] | Butyrate, ratio of VFA concentration in treated flasks to control flasks [1, 5] | Propionate, ratio of VFA concentration in treated flasks to control flasks [1, 5] | Total VFA, ratio of concentration in treated flasks to control flasks [1, 5] | Acetate, ratio of VFA concentration in treated flasks to control flasks [1, 6] | Butyrate, ratio of VFA concentration in treated flasks to control flasks [1, 6] | Propionate, ratio of VFA concentration in treated flasks to control flasks [1, 6] | Total VFA, ratio of concentration in treated flasks to control flasks [1, 6] | Butyric acid, Increase Relative to Control [2] [%] | Propionic acid, Increase Relative to Control [2] [%] | Butyric acid, Change from Control ([2]; control 11.1) | Propionic acid, Change from Control ([2]; control 26.2) | % Butyric Acid Conc. [2, 7] [%] | % Propionic Acid Conc. [2, 7] [%] | fat-corrected-milk production [3]
CC1=C\[C@@H](O)C[C@@H](O)Cc2nc(co2)C(=O)N[C@H](C)C(=O)O[C@H](C(C)C)[C@H](C)/C=C/C(=O)NC\C=C\1 [A-2315 Factor A] | 0.97 | 1.01 | 1.07 | 1.04 | 0.95 | 1.00 | 1.08 | 1.07 | 0.95 | 1.04 | 1.15 | 1.05 | 21.6 | 18.2 | 2.4 | 4.8 | 13.5 | 31.0 | 
CC[C@@]1([C@@H]2O[C@@H]([C@H]3O[C@@](O)(CO)[C@H](C)C[C@@H]3C)C[C@@H]2C)CC[C@H]([C@]2(C)CC[C@]3(C[C@H](O)[C@@H](C)[C@@H]([C@@H](C)[C@@H](OC)[C@H](C)C(=O)O)O3)O2)O1 [Monensin] |  |  |  |  |  |  |  |  |  |  |  |  |  |  |  |  |  |  | no different from that of non-treated control animals
